# Results published in US20250212884A1, “Magnesia Compounds For Preventing Contamination Of Animal Farming Facilities And For Decontamination Of Same” (priority 2022, published 2025).
# System: Salmonella
# Experiment: Salmonella detection (drag swabs, ISO 6579-1:2017) in poultry (turkey) buildings one week after spraying of disinfectant
# Set-up: species or system Salmonella spp.
# Details: Experiment 3; one week after application; 500 liter per 1000 m^2
smiles,measurement,value
"Cc1ccc(S(=O)(=O)NCl)cc1.[Na] [Chlorigal T, Sodium N-chloro-para-toluenesulfonamide]","Salmonella test result, Sample #1",Negative
same,"Salmonella test result, Sample #2",Negative
